From US20120053053A1, “PYRIMIDINE DERIVATIVES AND THEIR USE AS HERBICIDES” (SYNGENTA CROP PROTECTION, LLC, priority 2009, published 2012)

Key:
Type in all cases: in vivo
[1] = system: Echinochloa crus-galli (ECHCG); experiment: Post-emergence biological efficacy (percentage damage); conditions: Echinochloa crus-galli, 312 h, dose 1,000 g/ha, evaluated after 13 days, 100=total damage, 0=no damage
Experimental: (§1) Seeds of Alopecurus myosuroides (ALOMY), Setaria faberi (SETFA), Echinochloa crus-galli (ECHCG), Solanum nigrum (SOLNI), Amaranthus retoflexus (AMARE) and Ipomea hederaceae (IPOHE) were sown in standard soil in pots. After cultivation for 8 days under controlled conditions in a glasshouse (at 24/16° C., day/night; 14 hours light; 65% humidity), the plants were sprayed with an aqueous spray solution derived from the formulation of the technical active ingredient in acetone/water (50:50) solution containing 0.5% Tween 20 (polyoxyethylene sorbitan monolaurate, CAS RN 9005-64-5) to give a final dose of 250 or 1000 g/ha of test compound. The test plants were then grown on under controlled conditions in a glasshouse (at 24/16° C., day/night; 14 hours light; 65% humidity) and watered twice daily. After 13 days the test was evaluated (100=total damage to plant; 0=no damage to plant).

[2] = system: Alopecurus myosuroides (ALOMY); experiment: as above; conditions: Alopecurus myosuroides, 312 h, dose 1,000 g/ha, evaluated after 13 days, 100=total damage, 0=no damage
Experimental: as §1

Solanum nigrum (SOLNI) [3] = experiment: as above; conditions: Solanum nigrum, 312 h, dose 1,000 g/ha, evaluated after 13 days, 100=total damage, 0=no damage
Experimental: as §1

Setaria faberi (SETFA) [4] = experiment: as above; conditions: Setaria faberi, 312 h, dose 1,000 g/ha, evaluated after 13 days, 100=total damage, 0=no damage
Experimental: as §1

[5] = system: Amaranthus retoflexus (AMARE); experiment: as above; conditions: Amaranthus retroflexus, 312 h, dose 1,000 g/ha, evaluated after 13 days, 100=total damage, 0=no damage
Experimental: as §1

[6] = system: Ipomea hederaceae (IPOHE); experiment: as above; conditions: Ipomoea hederacea, 312 h, dose 1,000 g/ha, evaluated after 13 days, 100=total damage, 0=no damage
Experimental: as §1

[7] = system: Echinochloa crus-galli (ECHCG); experiment: Pre-emergence biological efficacy (percentage damage); conditions: Echinochloa crus-galli, 312 h, dose 1,000 g/ha, evaluated after 13 days, 100=total damage, 0=no damage
Experimental: (§2) Seeds of Alopecurus myosuroides (ALOMY), Setaria faberi (SETFA), Echinochloa crus-galli (ECHCG), Solanum nigrum (SOLNI), Amaranthus retoflexus (AMARE) and Ipomea hederaceae (IPOHE) were sown in standard soil in pots. After cultivation for one day under controlled conditions in a glasshouse (at 24/16° C., day/night; 14 hours light; 65% humidity), the plants were sprayed with an aqueous spray solution derived from the formulation of the technical active ingredient in acetone/water (50:50) solution containing 0.5% Tween 20 (polyoxyethylene sorbitan monolaurate, CAS RN 9005-64-5) to give a final dose of 250 or 1000 g/ha of test compound. The test plants were then grown under controlled conditions in the glasshouse (at 24/16° C., day/night; 14 hours light; 65% humidity) and watered twice daily. After 13 days the test was evaluated (100=total damage to plant; 0=no damage to plant).

[8] = system: Alopecurus myosuroides (ALOMY); experiment: as above; conditions: Alopecurus myosuroides, 312 h, dose 1,000 g/ha, evaluated after 13 days, 100=total damage, 0=no damage
Experimental: as §2

Solanum nigrum (SOLNI) [9] = experiment: as above; conditions: Solanum nigrum, 312 h, dose 1,000 g/ha, evaluated after 13 days, 100=total damage, 0=no damage
Experimental: as §2

Setaria faberi (SETFA) [10] = experiment: as above; conditions: Setaria faberi, 312 h, dose 1,000 g/ha, evaluated after 13 days, 100=total damage, 0=no damage
Experimental: as §2

[11] = system: Amaranthus retoflexus (AMARE); experiment: as above; conditions: Amaranthus retroflexus, 312 h, dose 1,000 g/ha, evaluated after 13 days, 100=total damage, 0=no damage
Experimental: as §2

[12] = system: Ipomea hederaceae (IPOHE); experiment: as above; conditions: Ipomoea hederacea, 312 h, dose 1,000 g/ha, evaluated after 13 days, 100=total damage, 0=no damage
Experimental: as §2

SMILES	pest or weed control at 1000 g/ha [1]	pest or weed control at 1000 g/ha [2]	pest or weed control at 1000 g/ha (Solanum nigrum (SOLNI) [3])	pest or weed control at 1000 g/ha (Setaria faberi (SETFA) [4])	pest or weed control at 1000 g/ha [5]	pest or weed control at 1000 g/ha [6]	pest or weed control at 1000 g/ha [7]	pest or weed control at 1000 g/ha [8]	pest or weed control at 1000 g/ha (Solanum nigrum (SOLNI) [9])	pest or weed control at 1000 g/ha (Setaria faberi (SETFA) [10])	pest or weed control at 1000 g/ha [11]	pest or weed control at 1000 g/ha [12]
C=Cc1c(SC)nc(C2CC2)nc1C(=O)OC [Compound 2-400, 2-cyclopropyl-5-ethenyl-6-methoxycarbonyl-4-methylthio-pyrimidine]	0%	0%	100%	0%	80%	60%	0%	0%	100%	0%	90%	60%
C=Cc1c(C(=O)OC)nc(C2CC2)nc1S(C)(=O)=O [Compound 2-402, 2-cyclopropyl-5-ethenyl-6-methoxycarbonyl-4-methylsulphonyl-pyrimidine]	0%	0%	20%	0%	0%	50%	0%	0%	0%	0%	0%	0%
COC(=O)c1nc(-c2ccc(Cl)cc2)nc(N)c1C [Compound 5-41]	20%	30%	70%	30%	100%	40%	30%	20%	30%	30%	100%	10%
C=Cc1c(N)nc(-c2ccc(Cl)cc2)nc1C(=O)OC [Compound 5-61, 4-Amino-2-(4-chlorophenyl)-5-ethenyl-6-methoxycarbonyl-pyrimidine]	90%	80%	100%	100%	100%	100%	60%	60%	90%	60%	100%	90%
C=Cc1c(N)nc(-c2ccc(Br)cc2)nc1C(=O)OC [Compound 6-61, 4-Amino-2-(4-bromophenyl)-5-ethenyl-6-methoxycarbonyl-pyrimidine]	50%	60%	90%	30%	100%	70%	50%	70%	90%	30%	100%	80%
C=Cc1c(N)nc(-c2ccc(Cl)c(Cl)c2)nc1C(=O)OC [Compound 9-61, 4-Amino-2-(3,4-dichlorophenyl)-5-ethenyl-6-methoxycarbonyl-pyrimidine]	20%	20%	90%	0%	100%	70%	30%	0%	70%	0%	90%	10%
C=Cc1c(N)nc(-c2ccc(Cl)c(C(F)(F)F)c2)nc1C(=O)OC [Compound 14-61, 4-Amino-2-(4-chloro-3-trifluoromethyl-phenyl)-5-ethenyl-6-methoxycarbonyl-pyrimidine]	0%	0%	80%	0%	10%	40%	20%	10%	40%	10%	60%	10%
C=Cc1c(N)nc(-c2ccc(Cl)cc2F)nc1C(=O)OC [Compound 15-61, 4-Amino-2-(4-chloro-2-fluorophenyl)-5-ethenyl-6-methoxycarbonyl-pyrimidine]	70%	90%	100%	70%	100%	80%	70%	80%	100%	70%	100%	100%
C=Cc1c(N)nc(-c2ccc(Cl)c(F)c2)nc1C(=O)OC [Compound 19-61, 4-Amino-2-(4-chloro-3-fluorophenyl)-5-ethenyl-6-methoxycarbonyl-pyrimidine]	60%	40%	100%	40%	100%	100%	70%	50%	100%	30%	100%	100%
C=Cc1c(N)nc(-c2ccc(Cl)c(OC)c2)nc1C(=O)OC [Compound 26-61, 4-Amino-2-(4-chloro-3-methoxyphenyl)-5-ethenyl-6-methoxycarbonyl-pyrimidine]	60%	50%	80%	0%	100%	70%	0%	0%	80%	0%	100%	20%
C=Cc1c(N)nc(-c2ccc(Cl)c(OC)c2F)nc1C(=O)O [Compound 27-21, 4-amino-2-(4-chloro-2-fluoro-3-methoxyphenyl)-5-ethenylpyrimidine-6-carboxylic acid]	90%	90%	90%	100%	100%	90%	100%	90%	100%	100%	100%	100%
COC(=O)c1nc(-c2ccc(Cl)c(OC)c2F)nc(N)c1C [Compound 27-41]	50%	30%	80%	80%	100%	60%	20%	30%	80%	10%	50%	90%
